Read-outs that look alike come from different tables or passages of the source.
Legend:
[1] = target: wild-type Drosophila melanogaster EcR (DmEcR; GAL4-EcR DEF with VP16-RXR-USP chimera) (Drosophila melanogaster, UniProt P34021); assay: Two-hybrid gene switch assay, luciferase reporter, wild-type DmEcR, mouse NIH3T3 cells; type: cell-based
[2] = target: BmEcR (GAL4-EcR DEF with VP16-RXR-USP chimera) (Bombyx mori, UniProt P49881); assay: Two-hybrid gene switch assay, luciferase reporter, BmEcR, mouse NIH3T3 cells; type: cell-based
Sequence of BmEcR (GAL4-EcR DEF with VP16-RXR-USP chimera) (P49881 other isoform, or with tags, fused parts or gaps, change not shown): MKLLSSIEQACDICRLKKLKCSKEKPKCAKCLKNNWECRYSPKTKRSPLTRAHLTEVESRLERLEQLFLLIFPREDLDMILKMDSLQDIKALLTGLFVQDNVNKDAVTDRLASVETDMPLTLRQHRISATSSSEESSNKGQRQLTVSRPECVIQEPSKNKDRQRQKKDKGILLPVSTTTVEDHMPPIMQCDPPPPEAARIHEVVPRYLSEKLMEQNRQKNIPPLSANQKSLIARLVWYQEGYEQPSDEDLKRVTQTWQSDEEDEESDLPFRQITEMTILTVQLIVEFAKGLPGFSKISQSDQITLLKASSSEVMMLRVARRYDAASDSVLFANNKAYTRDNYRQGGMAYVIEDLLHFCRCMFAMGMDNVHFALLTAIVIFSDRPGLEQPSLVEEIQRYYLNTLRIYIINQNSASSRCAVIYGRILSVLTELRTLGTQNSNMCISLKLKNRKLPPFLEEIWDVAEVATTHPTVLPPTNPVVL

[3] = target: T1, MsEcR (GAL4-EcR DEF with VP16-RXR-USP chimera) (Manduca sexta, UniProt P49883); assay: Two-hybrid gene switch assay, luciferase reporter, MsEcR, mouse NIH3T3 cells
T1 sequence (P49883 1-556): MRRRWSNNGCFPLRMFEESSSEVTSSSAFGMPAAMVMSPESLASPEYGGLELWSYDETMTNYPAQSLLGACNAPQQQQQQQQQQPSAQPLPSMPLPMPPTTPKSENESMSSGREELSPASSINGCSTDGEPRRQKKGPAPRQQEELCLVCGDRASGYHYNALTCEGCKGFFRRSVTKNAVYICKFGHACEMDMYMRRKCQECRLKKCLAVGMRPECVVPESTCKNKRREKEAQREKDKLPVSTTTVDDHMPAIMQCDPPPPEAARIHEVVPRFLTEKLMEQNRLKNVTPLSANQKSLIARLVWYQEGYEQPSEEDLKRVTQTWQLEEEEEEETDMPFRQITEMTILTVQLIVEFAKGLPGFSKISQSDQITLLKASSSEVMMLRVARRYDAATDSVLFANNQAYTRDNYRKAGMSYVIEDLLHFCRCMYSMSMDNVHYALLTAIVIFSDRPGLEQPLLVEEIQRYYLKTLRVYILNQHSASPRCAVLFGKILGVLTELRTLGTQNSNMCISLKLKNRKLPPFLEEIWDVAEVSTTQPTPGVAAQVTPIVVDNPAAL
T1 sequence (P28702 1-533 partner): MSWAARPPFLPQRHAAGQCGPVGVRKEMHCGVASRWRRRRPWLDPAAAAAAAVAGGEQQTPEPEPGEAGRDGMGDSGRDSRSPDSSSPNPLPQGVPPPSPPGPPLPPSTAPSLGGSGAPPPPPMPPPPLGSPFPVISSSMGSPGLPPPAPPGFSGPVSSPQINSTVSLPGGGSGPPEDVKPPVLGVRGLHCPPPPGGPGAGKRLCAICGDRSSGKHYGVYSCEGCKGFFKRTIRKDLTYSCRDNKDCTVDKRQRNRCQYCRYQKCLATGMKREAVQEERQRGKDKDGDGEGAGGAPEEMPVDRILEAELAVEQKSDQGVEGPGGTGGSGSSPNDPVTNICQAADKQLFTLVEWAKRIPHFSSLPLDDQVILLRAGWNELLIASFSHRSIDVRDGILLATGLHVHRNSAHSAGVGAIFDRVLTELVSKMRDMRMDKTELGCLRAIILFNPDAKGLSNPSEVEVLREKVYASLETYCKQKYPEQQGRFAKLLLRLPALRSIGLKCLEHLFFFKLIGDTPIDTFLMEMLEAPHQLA

[4] = target: T2, BaEcR (GAL4-EcR DEF with VP16-RXR-USP chimera) (Bemisia tabaci, UniProt A0A6M3RDR8); assay: Two-hybrid gene switch assay, luciferase reporter, BaEcR, mouse NIH3T3 cells
T2 sequence (A0A6M3RDR8 115-530): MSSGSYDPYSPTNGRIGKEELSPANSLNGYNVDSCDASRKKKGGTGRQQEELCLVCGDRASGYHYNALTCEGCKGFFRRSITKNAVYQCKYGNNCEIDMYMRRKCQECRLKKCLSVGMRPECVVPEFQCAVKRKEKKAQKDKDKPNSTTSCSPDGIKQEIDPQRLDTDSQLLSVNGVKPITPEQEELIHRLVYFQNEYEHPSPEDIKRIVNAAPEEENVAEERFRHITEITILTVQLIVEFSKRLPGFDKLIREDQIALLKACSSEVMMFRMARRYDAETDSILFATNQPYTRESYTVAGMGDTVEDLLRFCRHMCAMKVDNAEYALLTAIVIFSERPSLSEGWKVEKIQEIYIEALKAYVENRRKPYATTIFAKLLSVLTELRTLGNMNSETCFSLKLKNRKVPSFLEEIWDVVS
T2 sequence (P28702 1-533 partner): T1 sequence (P28702 1-533 partner)

[5] = test system: NcEcR (GAL4-EcR DEF with VP16-RXR partner); assay: Two-hybrid gene switch assay, luciferase reporter, NcEcR, mouse NIH3T3 cells
[6] = target: T3, TmEcR (GAL4-EcR DEF with VP16-RXR partner) (Tenebrio molitor, UniProt O02035); assay: Two-hybrid gene switch assay, luciferase reporter, TmEcR, mouse NIH3T3 cells
T3 sequence (O02035 194-491): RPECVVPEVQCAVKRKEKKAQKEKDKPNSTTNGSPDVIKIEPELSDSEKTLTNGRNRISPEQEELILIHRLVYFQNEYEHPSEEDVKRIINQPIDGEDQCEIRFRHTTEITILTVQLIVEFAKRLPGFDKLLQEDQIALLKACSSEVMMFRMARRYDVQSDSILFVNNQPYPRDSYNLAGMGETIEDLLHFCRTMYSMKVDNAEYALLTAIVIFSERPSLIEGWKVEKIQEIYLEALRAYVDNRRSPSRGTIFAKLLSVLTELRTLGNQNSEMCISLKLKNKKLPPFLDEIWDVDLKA
T3 sequence (P28704 1-520 partner): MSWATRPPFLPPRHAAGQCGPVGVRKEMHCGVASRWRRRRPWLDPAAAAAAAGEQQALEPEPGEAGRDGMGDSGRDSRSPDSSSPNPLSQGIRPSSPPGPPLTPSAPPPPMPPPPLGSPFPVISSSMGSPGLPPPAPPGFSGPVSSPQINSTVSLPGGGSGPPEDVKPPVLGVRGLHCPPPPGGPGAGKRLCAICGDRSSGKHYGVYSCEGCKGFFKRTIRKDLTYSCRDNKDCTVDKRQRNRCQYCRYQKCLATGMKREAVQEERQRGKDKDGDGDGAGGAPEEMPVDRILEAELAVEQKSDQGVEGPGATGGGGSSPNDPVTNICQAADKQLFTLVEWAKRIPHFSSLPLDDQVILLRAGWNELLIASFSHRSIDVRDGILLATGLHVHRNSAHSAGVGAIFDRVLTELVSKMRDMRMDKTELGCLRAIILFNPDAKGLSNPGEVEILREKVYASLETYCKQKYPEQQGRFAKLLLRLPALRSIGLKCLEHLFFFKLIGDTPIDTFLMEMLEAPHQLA

[7] = target: T4, AmaEcR (GAL4-EcR DEF with VP16-RXR-USP chimera) (Amblyomma americanum, UniProt O44338); assay: Two-hybrid gene switch assay, luciferase reporter, AmaEcR, mouse NIH3T3 cells
T4 sequence (O44338 255-570): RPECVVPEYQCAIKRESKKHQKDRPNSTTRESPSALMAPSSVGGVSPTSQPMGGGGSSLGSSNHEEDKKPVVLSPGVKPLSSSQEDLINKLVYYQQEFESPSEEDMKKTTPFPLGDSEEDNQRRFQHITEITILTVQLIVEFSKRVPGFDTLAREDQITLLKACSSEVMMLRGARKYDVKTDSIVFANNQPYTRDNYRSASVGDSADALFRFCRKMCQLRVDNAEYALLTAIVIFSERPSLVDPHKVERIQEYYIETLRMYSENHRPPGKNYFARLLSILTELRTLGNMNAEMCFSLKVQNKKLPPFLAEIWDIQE
T4 sequence (P28702 1-533 partner): T1 sequence (P28702 1-533 partner)

[8] = target: T5, wild-type CfEcR (GAL4-CfEcR-DEF with VP16-RXR-USP chimera) (Choristoneura fumiferana, UniProt O77255); assay: Two-hybrid gene switch assay, luciferase reporter, wild-type CfEcR, mouse NIH3T3 cells
T5 sequence (O77255 219-541): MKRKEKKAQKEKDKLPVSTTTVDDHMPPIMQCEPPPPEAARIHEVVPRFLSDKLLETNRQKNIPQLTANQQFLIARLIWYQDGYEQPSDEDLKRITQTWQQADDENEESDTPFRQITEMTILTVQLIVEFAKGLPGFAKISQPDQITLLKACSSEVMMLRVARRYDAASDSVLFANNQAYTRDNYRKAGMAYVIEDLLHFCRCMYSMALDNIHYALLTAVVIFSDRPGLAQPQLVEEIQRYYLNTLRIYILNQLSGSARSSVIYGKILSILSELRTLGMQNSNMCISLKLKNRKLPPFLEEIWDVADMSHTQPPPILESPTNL
T5 sequence (P28702 1-533 partner): T1 sequence (P28702 1-533 partner)

[9] = target: wild-type Aedes aegypti EcR (AaEcR; GAL4-EcR DEF with VP16-RXR-USP chimera) (Aedes aegypti, UniProt P49880); assay: Two-hybrid gene switch assay, luciferase reporter, wild-type AaEcR, mouse NIH3T3 cells; type: cell-based
Sequence of wild-type Aedes aegypti EcR (AaEcR; GAL4-EcR DEF with VP16-RXR-USP chimera) (P49880 with tags, fused parts or gaps limits assumed, change not shown): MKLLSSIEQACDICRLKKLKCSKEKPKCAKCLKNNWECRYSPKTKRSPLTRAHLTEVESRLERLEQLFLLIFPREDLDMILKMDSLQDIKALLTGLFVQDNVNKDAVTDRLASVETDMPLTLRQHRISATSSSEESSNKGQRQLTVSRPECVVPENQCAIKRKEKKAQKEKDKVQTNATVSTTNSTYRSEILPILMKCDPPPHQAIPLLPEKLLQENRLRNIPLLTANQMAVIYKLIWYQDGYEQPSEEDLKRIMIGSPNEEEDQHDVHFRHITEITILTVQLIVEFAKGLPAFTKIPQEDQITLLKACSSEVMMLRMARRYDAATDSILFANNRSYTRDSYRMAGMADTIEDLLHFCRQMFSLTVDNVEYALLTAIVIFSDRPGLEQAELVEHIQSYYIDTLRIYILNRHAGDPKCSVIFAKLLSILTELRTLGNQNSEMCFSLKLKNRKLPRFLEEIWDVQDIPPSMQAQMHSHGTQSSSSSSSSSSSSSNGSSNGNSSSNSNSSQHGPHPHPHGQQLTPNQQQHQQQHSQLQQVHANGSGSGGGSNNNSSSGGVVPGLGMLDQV

[10] = EC50, FIG. 14A/14B, GAL4-EcR(DEF) with VP16-RXR-USP chimera
[11] = EC50, FIG. 13A/13B, GAL4-EcR(DEF) with VP16-RXR-USP chimera
[12] = EC50, FIG. 14A/14B, GAL4-EcR(DEF)
[13] = FIG. 14A/14B, GAL4-EcR(DEF) with VP16-RXR-USP chimera, read-out: EC50
[14] = FIG. 13A/13B, BmEcR, GAL4-EcR(DEF) with VP16-RXR-USP chimera, read-out: EC50
[15] = FIG. 16, GAL4-EcR (DEF) / VP16-RXR-USP chimera, read-out: EC50
[16] = EC50, FIG. 16, GAL4-EcR (DEF) / VP16-RXR-USP chimera

Sequence of wild-type Drosophila melanogaster EcR (DmEcR; GAL4-EcR DEF with VP16-RXR-USP chimera) (P34021 with tags, fused parts or gaps limits assumed): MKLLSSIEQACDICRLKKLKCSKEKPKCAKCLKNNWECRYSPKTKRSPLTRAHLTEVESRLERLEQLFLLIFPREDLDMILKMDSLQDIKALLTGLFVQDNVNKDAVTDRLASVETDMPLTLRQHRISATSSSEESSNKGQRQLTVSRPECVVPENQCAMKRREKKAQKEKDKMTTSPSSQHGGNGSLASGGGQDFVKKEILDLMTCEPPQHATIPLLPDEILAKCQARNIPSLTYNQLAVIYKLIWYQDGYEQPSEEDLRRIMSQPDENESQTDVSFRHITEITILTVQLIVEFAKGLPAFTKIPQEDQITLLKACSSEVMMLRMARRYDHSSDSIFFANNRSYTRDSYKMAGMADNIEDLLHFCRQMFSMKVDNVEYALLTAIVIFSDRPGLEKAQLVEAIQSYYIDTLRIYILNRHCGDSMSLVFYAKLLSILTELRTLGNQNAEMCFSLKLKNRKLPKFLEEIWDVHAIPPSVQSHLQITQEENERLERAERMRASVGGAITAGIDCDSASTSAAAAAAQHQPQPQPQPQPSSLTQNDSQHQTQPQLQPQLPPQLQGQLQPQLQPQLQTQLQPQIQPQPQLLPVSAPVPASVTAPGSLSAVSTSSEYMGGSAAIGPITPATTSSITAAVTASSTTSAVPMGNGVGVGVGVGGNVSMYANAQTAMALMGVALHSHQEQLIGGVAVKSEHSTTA

Structure (SMILES)	EC50 [1, 10]	EC50 [3, 11]	EC50 [4, 10]	EC50 ([5]; FIG. 14A/14B, GAL4-EcR(DEF))	EC50 [6, 12]	EC50 [7, 10]	EC50 [8]	EC50 [9, 13]	also measured
CC(C)(O)CCCC(C)(O)C1CCC2(O)C3=CC(=O)C4CC(O)C(O)CC4(C)C3CCC12C (stereo not drawn)	~20 µM	~15 µM	~10 µM	3.04 µM	~20 µM	~10 µM	> 33 µM	–	EC50 [2]: > 33 µM
C=C(C)CC[C@@H](O)[C@](C)(O)[C@H]1CC[C@@]2(O)C3=CC(=O)[C@@H]4C[C@@H](O)[C@@H](O)C[C@]4(C)[C@H]3CC[C@]12C [listing 1 of 2 here]	0.912 µM	–	0.382 µM	0.006 µM	1.4 µM	–	–	–	EC50 [9, 10]: 0.024 µM
C=C(C)CC[C@@H](O)[C@](C)(O)[C@H]1CC[C@@]2(O)C3=CC(=O)[C@@H]4C[C@@H](O)[C@@H](O)C[C@]4(C)[C@H]3CC[C@]12C [listing 2 of 2 here]	–	0.608 µM	–	–	–	–	~12 µM	–	EC50 ([2]; read-out: EC50): 6.28 µM
CC(C)(O)CC[C@@H](O)[C@](C)(O)[C@H]1CC[C@@]2(O)C3=CC(=O)[C@@H]4C[C@H](O)[C@@H](O)C[C@]4(C)[C@H]3CC[C@]12C	–	~10 µM	~20 µM	4.84 µM	> 33 µM	~10 µM	–	~8 µM	EC50 [1, 13]: ~20 µM; EC50 [2, 14]: > 33 µM
CC(C)(O)CC[C@H]1OC(C)(C)O[C@]1(C)[C@H]1CC[C@@]2(O)C3=CC(=O)[C@@H]4C[C@@H](O)[C@@H](O)C[C@]4(C)[C@H]3CC[C@]12C [20-hydroxyecdysone-20,22-acetonide]	> 33 µM	~12 µM	> 33 µM	~10 µM	> 33 µM	~20 µM	–	~12 µM	EC50 [9, 15]: 2.38 µM; EC50 [1, 16]: ~12 µM; EC50 ([3]; EC50, FIG. 15, GAL4-EcR (DEF) / VP16-RXR-USP chimera): ~12 µM; EC50 [4, 16]: 8.57 µM; EC50 ([6]; EC50, FIG. 16, GAL4-EcR (DEF)): ~3 µM; EC50 [7, 16]: ~1 µM
CC(C)(O)CC[C@@H](O)[C@](C)(O)[C@H]1CC[C@@]2(O)C3=CC(=O)[C@H]4C[C@@H](O)[C@@H](O)C[C@]4(C)[C@H]3CC[C@]12C [(5a-H)-20-hydroxyecdysone]	–	> 33 µM	> 33 µM	~15 µM	> 33 µM	> 33 µM	–	~20 µM	EC50 [1, 13]: > 33 µM; EC50 [2, 14]: > 33 µM
CC(C)(O)CCC(O)C(C)(O)C1CCC2(O)C3=CC(=O)C4CC(O)CCC4(C)C3CCC12C (stereo not drawn) [Compound 2-deoxy-20-hydroxyecdysone]	> 33 µM	~10 µM	~15 µM	–	~20 µM	~5 µM	> 33 µM	~5 µM	EC50 ([2]; read-out: EC50): > 33 µM
CC(C)(O)CC[C@@H](O)[C@](C)(O)[C@H]1CC[C@@]2(O)C3=CC(=O)[C@@H]4C[C@@H](O)[C@@H](O)C[C@]4(C)[C@H]3CC[C@]12C [Compound 20-hydroxyecdysone]	–	–	~5 µM	~0.8 µM	~15 µM	–	–	–	EC50 [9, 15]: 4.38 µM; EC50 [1, 15]: ~15 µM; EC50 [4, 16]: 5.35 µM; EC50 ([5]; FIG. 16, GAL4-EcR (DEF)): 0.6 µM; EC50 [7, 16]: ~0.8 µM
CC(C)CC[C@@H](O)[C@](C)(O)[C@H]1CC[C@@]2(O)C3=CC(=O)[C@]4(O)C[C@@H](O)[C@@H](O)C[C@]4(C)[C@H]3[C@H](O)C[C@]12C [Mur A, muristerone A, reference compound]	0.058 µM	0.66 µM	0.829 µM	–	~5 µM	0.128 µM	–	–	EC50 [9, 10]: 0.023 µM; EC50 ([1]; EC50, FIG. 4C): 0.112 µM; EC50 ([2]; EC50, FIG. 13A/13B, BmEcR, GAL4-EcR(DEF) with VP16-RXR-USP chimera): 2.98 µM

Reference: patent US8536354B2, “Steroidal ligands and their use in gene switch modulation” (Intrexon Corporation, priority 2008, dated 2013)
